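Cultured in 96-well plates, cells were exposed to test compound for 48 hours across five concentrations. TGI is the concentration that stops growth completely.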
Legend:
Assay in all cases: NCI tumour cell line growth inhibition, 48 h
[1] = test system: NCI-H226 lung
[2] = test system: MCF7 breast
[3] = test system: DU-145 prostate
[4] = test system: OVCAR-4 ovarian
[5] = test system: SK-OV-3 ovarian
[6] = test system: MDA-MB-435
[7] = test system: SNB-75 CNS
[8] = test system: HOP-62 NSCLC
[9] = test system: KM12 colon
[10] = test system: P388/ADR leukemia

Row | SMILES | TGI [1] | TGI [2] | TGI [3] | TGI [4] | TGI [5] | TGI [6] | TGI [7] | TGI [8] | TGI [9] | TGI [10]
1 | CON(C)C(=O)[C@H]1C[C@@]1(C)CO | > 100 µM | > 100 µM | > 100 µM | > 100 µM | > 100 µM | > 100 µM | > 100 µM | > 100 µM | > 100 µM | –
2 | CCc1n[nH]c(=O)n1/N=C(\C)c1ccc([N+](=O)[O-])cc1 | > 100 µM | > 100 µM | > 100 µM | > 100 µM | – | > 100 µM | – | > 100 µM | > 100 µM | –
3 | C=C1C(=O)O[C@@H]2/C=C(\C)CC/C=C(\C)CC[C@@]12O | 59.2 µM | 14.5 µM | 4.93 µM | 4.86 µM | 54.4 µM | 7.29 µM | – | 15.6 µM | 25 µM | –
4 | CNC1Cc2c[nH]c3cccc(c23)C12C=C(C)C(=O)O2 (stereo unspecified) | > 100 µM | > 100 µM | > 100 µM | > 100 µM | > 100 µM | > 100 µM | > 100 µM | > 100 µM | > 100 µM | –
5 | COC(=O)C1=C(C)N2CCSC2(C)C(C(=O)OC)C1c1cccc(Cl)c1 (stereo unspecified) | 47.4 µM | – | – | > 100 µM | – | – | 42.9 µM | 38.2 µM | 62.3 µM | –
6 | OCC(O)CNc1ncnc2ccccc12 (stereo unspecified) | > 100 µM | > 100 µM | > 100 µM | > 100 µM | > 100 µM | > 100 µM | > 100 µM | > 100 µM | > 100 µM | –
7 | CC(C)(C)c1ccc2c(c1)C#Cc1cc(C(C)(C)C)ccc1OCCCO2 | > 100 µM | > 100 µM | > 100 µM | > 100 µM | – | > 100 µM | – | > 100 µM | > 100 µM | –
8 | CC(C)(C)OC(=O)N1C(OP(=O)(Oc2ccccc2)Oc2ccccc2)=CSc2ccccc21 | > 100 µM | > 100 µM | > 100 µM | > 100 µM | > 100 µM | > 100 µM | > 100 µM | > 100 µM | > 100 µM | –
9 | CCN1c2cc(Br)cc3[nH]c(=O)n(c23)CCC1C (stereo unspecified) | 37.8 µM | 54.5 µM | 36 µM | 65.2 µM | 49.4 µM | 16.8 µM | 32.4 µM | 37.2 µM | 47.4 µM | –
10 | Cc1c(/C=N/NC(=S)Nc2ccc(Cl)cc2)c(=O)n(-c2ccccc2)n1C | 53.8 µM | > 54.9 µM | > 100 µM | > 57.1 µM | 35.8 µM | > 100 µM | 35.8 µM | 27.5 µM | 99.4 µM | –
11 | CCOC(=O)C1(C/C=C/CCl)CCCC1=O (stereo unspecified) | 36.2 µM | 48.4 µM | > 100 µM | 93.7 µM | > 100 µM | 44 µM | 61.8 µM | 45.1 µM | 41.2 µM | –
12 | O=C(NC(Cc1ccc(Br)cc1)C(=O)O)c1ccc(I)cc1 (stereo unspecified) | > 100 µM | > 100 µM | – | > 100 µM | > 100 µM | – | > 100 µM | > 100 µM | > 100 µM | > 100 µM
13 | Nc1ccc(O)c2c1C(=O)c1c(N)ccc(O)c1C2=O | – | – | – | > 100 µM | > 100 µM | – | > 100 µM | > 100 µM | > 100 µM | –
14 | O=C(Oc1c(Cl)cc(C2(c3cc(Cl)c(OC(=O)c4ccccc4)c(Cl)c3)CCCCC2)cc1Cl)c1ccccc1 | 42.5 µM | 25.2 µM | 36.7 µM | 32.3 µM | 31.2 µM | 24.7 µM | 26.9 µM | 33.9 µM | 23.9 µM | –
15 | Clc1cc(Cl)c2cc3cccc[n+]3cc2c1Cl | 43.6 µM | 31.9 µM | 34 µM | 30.2 µM | 30.1 µM | 32.7 µM | 24.7 µM | 31.6 µM | – | –
16 | OC[C@H]1NC[C@@H](O)[C@@H](O)[C@H]1O | > 100 µM | > 100 µM | – | > 100 µM | > 100 µM | > 100 µM | > 100 µM | > 100 µM | > 100 µM | –
17 | CSc1nc(CO)c(CO)n1C | > 100 µM | > 100 µM | – | > 100 µM | > 100 µM | – | > 100 µM | > 100 µM | > 100 µM | > 100 µM
18 | COc1cc(/C=C2\N=C(c3ccccc3)N(c3ccc(C(=O)c4ccccc4)cc3N3C(=O)/C(=C/c4ccc(O)c(OC)c4)N=C3c3ccccc3)C2=O)ccc1O | – | 20.2 µM | 48.6 µM | 84.4 µM | 45 µM | 8.16 µM | 54.3 µM | 48.9 µM | 22.4 µM | –
19 | CN(Cc1cn(O)c2nc(=N)nc(N)c-2n1)c1ccc(C(=O)NC23CC4CC(CC(C4)C2)C3)cc1 | > 100 µM | > 100 µM | > 100 µM | – | > 100 µM | > 100 µM | 76.2 µM | > 100 µM | > 100 µM | –
20 | CN(C)CCNC(=O)c1cc(Cl)cc2cc3ccccc3nc12 | 3.89 µM | 4.53 µM | – | 8.04 µM | 9.27 µM | – | 6.09 µM | 5.04 µM | 10.1 µM | –
21 | C[C@@H]1C(=O)O[C@H]1[C@H](O)CO | – | > 100 µM | > 100 µM | > 100 µM | > 100 µM | > 100 µM | > 100 µM | > 100 µM | > 100 µM | –
22 | O=C(CSCC(=O)N/N=C/c1ccccc1)N/N=C\c1ccccc1 | > 100 µM | > 100 µM | > 100 µM | > 100 µM | > 100 µM | > 100 µM | > 100 µM | > 100 µM | > 100 µM | –
23 | NC(CCOCCP(=O)(O)CCC1C=CC=CC1)C(=O)O (stereo unspecified) | – | > 100 µM | > 100 µM | > 100 µM | > 100 µM | > 100 µM | > 100 µM | – | > 100 µM | –
24 | CC(=O)O[C@H]1CC[C@H]2[C@@H]3CCC4=CC(=O)C=C[C@]4(O)[C@H]3CC[C@]12C | > 96.7 µM | > 83.5 µM | > 100 µM | > 100 µM | – | 49.5 µM | 61.3 µM | > 100 µM | 52.8 µM | –

— PubChem BioAssay (NCI)
